In the supplement of paper PMC10307832:

What was measured:
Experiment in all cases: relative viability (nuclei count vs DMSO), 5 days (fraction); higher = more cells survive
Palbociclib + Decitabine = compound: CC(=O)c1c(C)c2cnc(Nc3ccc(N4CCNCC4)cn3)nc2n(C2CCCC2)c1=O [Palbociclib] + Nc1ncn([C@H]2C[C@H](O)[C@@H](CO)O2)c(=O)n1 [Decitabine] (partner 2 µM)
How it was run: (§1)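 Dosing by pin tool came one day after lung cancer cell lines were seeded in 1536-well plates, using either one drug or a fixed anchor-drug dose plus five library-drug doses (not always all listed) in √10 steps. After 5 days, nuclei were counted on 4× images. Relative viability is treated-well nuclei count divided by vehicle-well nuclei count, and values are medians of duplicate plates.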

Palbociclib + Tozasertib = compound: CC(=O)c1c(C)c2cnc(Nc3ccc(N4CCNCC4)cn3)nc2n(C2CCCC2)c1=O [Palbociclib] + Cc1cc(Nc2cc(N3CCN(C)CC3)nc(Sc3ccc(NC(=O)C4CC4)cc3)n2)n[nH]1 [Tozasertib] (partner 0.1 µM)
How it was run: as §1

Palbociclib + Pictilisib = compound: CC(=O)c1c(C)c2cnc(Nc3ccc(N4CCNCC4)cn3)nc2n(C2CCCC2)c1=O [Palbociclib] + CS(=O)(=O)N1CCN(Cc2cc3nc(-c4cccc5[nH]ncc45)nc(N4CCOCC4)c3s2)CC1 [Pictilisib] (partner 1 µM)
How it was run: as §1

Palbociclib + Pemetrexed = compound: CC(=O)c1c(C)c2cnc(Nc3ccc(N4CCNCC4)cn3)nc2n(C2CCCC2)c1=O [Palbociclib] + Nc1nc2[nH]cc(CCc3ccc(C(=O)N[C@@H](CCC(=O)O)C(=O)O)cc3)c2c(=O)[nH]1 [Pemetrexed] (partner 0.2 µM)
How it was run: as §1

Cell Line	relative viability (Palbociclib + Decitabine; first compound 0.01 µM)	relative viability (Palbociclib + Decitabine; first compound 0.03162 µM)	relative viability (Palbociclib + Decitabine; first compound 0.1 µM)	relative viability (Palbociclib + Decitabine; first compound 0.3162 µM)	relative viability (Palbociclib + Decitabine; first compound 1 µM)	relative viability (Palbociclib + Tozasertib; first compound 0.01 µM)	relative viability (Palbociclib + Tozasertib; first compound 0.03162 µM)	relative viability (Palbociclib + Tozasertib; first compound 0.1 µM)	relative viability (Palbociclib + Tozasertib; first compound 0.3162 µM)	relative viability (Palbociclib + Tozasertib; first compound 1 µM)	relative viability (Palbociclib + Pictilisib; first compound 0.01 µM)	relative viability (Palbociclib + Pictilisib; first compound 0.03162 µM)	relative viability (Palbociclib + Pictilisib; first compound 0.1 µM)	relative viability (Palbociclib + Pictilisib; first compound 0.3162 µM)	relative viability (Palbociclib + Pictilisib; first compound 1 µM)	relative viability (Palbociclib + Pemetrexed; first compound 0.01 µM)	relative viability (Palbociclib + Pemetrexed; first compound 0.03162 µM)	relative viability (Palbociclib + Pemetrexed; first compound 0.1 µM)	relative viability (Palbociclib + Pemetrexed; first compound 0.3162 µM)	relative viability (Palbociclib + Pemetrexed; first compound 1 µM)
NCI-H1734	0.46	0.524	0.539	0.461	0.43	0.267	0.253	0.29	0.231	0.277	0.39	0.387	0.331	0.344	0.235	0.423	0.466	0.404	0.407	0.4
NCI-H1755	0.742	0.744	0.614	0.7	0.635	0.578	0.596	0.558	0.506	0.506	0.437	0.297	0.337	0.29	0.263	0.429	0.394	0.385	0.467	0.397
NCI-H1793	0.559	0.613	0.611	0.46	0.342	0.358	–	0.318	0.339	0.276	0.241	0.351	0.285	0.224	0.219	0.975	0.653	0.676	0.617	0.339
NCI-H1915	0.277	–	0.254	0.254	0.26	0.435	0.36	0.48	0.471	0.452	0.875	0.504	0.846	0.808	0.621	0.494	–	0.446	0.413	0.331
NCI-H1944	0.45	0.426	0.447	0.438	0.431	0.254	0.242	0.293	0.245	0.229	0.317	0.332	0.334	0.265	0.228	0.598	0.57	0.589	0.477	0.367
NCI-H1975	0.413	0.429	0.412	0.399	0.365	0.733	0.664	0.577	0.694	0.592	0.286	0.271	0.199	0.25	0.186	0.293	0.284	0.276	0.294	0.256
NCI-H1993	0.61	0.588	0.606	0.507	0.555	0.612	0.572	0.575	0.507	0.509	0.858	0.628	0.829	0.812	0.632	0.681	0.649	0.482	0.512	0.54
NCI-H2009	0.375	0.347	0.358	0.365	0.274	0.739	0.729	0.625	0.479	0.346	0.758	0.453	0.462	0.411	0.182	1.04	0.925	0.913	0.72	0.408
NCI-H2023	0.225	0.189	0.254	0.272	0.251	0.377	0.31	0.314	0.297	0.292	0.2	0.151	0.151	0.15	0.111	0.203	0.188	0.169	0.174	0.142
NCI-H2085	0.555	0.55	0.65	0.534	0.538	0.84	0.701	0.689	0.635	0.523	0.517	0.427	0.398	0.361	0.318	0.823	0.798	0.752	0.6	0.485
NCI-H2087	0.234	0.272	0.2	0.228	0.171	0.212	–	0.189	0.189	0.156	0.83	0.669	0.478	0.498	0.393	0.683	0.664	0.621	0.537	0.393
NCI-H2126	0.637	0.568	0.492	0.539	0.463	0.837	0.746	0.531	0.542	0.363	0.502	0.475	0.444	0.402	0.328	0.725	0.581	0.509	0.51	0.345
NCI-H2170	0.503	0.478	0.446	0.477	0.45	0.697	0.75	0.737	0.77	0.655	0.346	0.252	0.253	0.239	0.206	0.269	0.277	0.224	0.242	0.222
NCI-H2347	0.597	0.656	0.599	0.585	0.504	0.639	–	0.542	0.565	0.361	0.538	0.772	0.584	0.47	0.492	0.39	0.407	0.368	0.413	0.386
NCI-H2405	0.781	0.808	0.691	0.64	0.605	0.75	0.651	0.663	0.574	0.509	0.46	–	0.294	0.415	0.313	1.06	1.14	0.941	0.799	0.523
